Laboratory results as given in PubChem BioAssay AID1996.
In brackets after ≈: the same amount, converted by molar mass.

Conditions: buffer; pH 7.4; 200.0 µM

Structure (SMILES) | solubility kinetic [µg/mL]
COc1ccc(/C(N)=N/OC(=O)c2cccc([N+](=O)[O-])c2C)cc1 | 1.1 (≈ 3.34 µM)
CC(=O)N(c1ccc(Cl)cc1)c1nc(C)cc(C)c1C#N | > 45
Cc1ccc(CONC(=O)c2ccc([N+](=O)[O-])cc2)cc1 | 2.1 (≈ 7.34 µM)
COc1ccccc1NC(=O)NCCc1c[nH]c2ccccc12 | 41.1 (≈ 133 µM)
COC(=O)c1ccc(OCC(=O)N2CCCc3ccccc32)cc1 | 45 (≈ 138 µM)
O=C(O)c1ccccc1NCc1cccnc1 | > 34.2
CCOC(=O)N1CCc2c(sc(NC(=O)CN3CCOCC3)c2C#N)C1 | 48.5 (≈ 128 µM)
Cc1ccc(CSc2nc(N)cc(=O)[nH]2)cc1 | 13.1 (≈ 53 µM)
COc1ccccc1CC(=O)Nc1cccc(C(=O)Nc2nccs2)c1 | 0.7 (≈ 1.91 µM)
Cc1ccccc1N1C(=O)c2cccc([N+](=O)[O-])c2C1=O | > 42.3
CC(C)(C)c1ccc(C(=S)N2CCN(c3ccccc3)CC2)cc1 | < 0.4
Cc1ccnc(NC(=O)c2ccccc2NC(=O)c2ccccc2)c1 | < 0.2
COc1ccc(C(=O)N/C(=C\c2ccc(SC)cc2)C(=O)NCCCn2ccnc2)cc1OC | 12.3 (≈ 25.6 µM)
CNC(=O)CN1C(=O)NC2(CCc3ccccc3C2)C1=O (centres undefined) | > 43.1
CSCc1ccc(C(=O)Nc2ccc(C(N)=O)cc2)cc1 | 0.8 (≈ 2.66 µM)
O=C(c1ccc(Br)cc1)N1CCCc2ccccc21 | 14 (≈ 44.3 µM)
O=C(COC(=O)c1ccc[n+]([O-])c1)Nc1ccc([N+](=O)[O-])cc1Cl | > 52.8
CC(C)c1ccc(CN2CCSCC2)cc1 | 1.1 (≈ 4.67 µM)
Cc1nc([N+](=O)[O-])c(C(=O)OCc2ccc(C#N)cc2)n1C | 17.7 (≈ 58.9 µM)
Cc1cc(C)c2c(n1)sc1c(=O)n(CC(=O)c3ccccc3)cnc12 | < 0.2

Structure (SMILES) | solubility kinetic [µg/mL]
COC(CNS(=O)(=O)c1cccc2nonc12)OC | > 43.1
COc1cc(/C=C2\N=C(c3ccccc3)OC2=O)ccc1OC(C)=O | > 50.6
CSc1ncccc1C(=O)OCC(=O)NC1CCC(C)CC1 (centres undefined) | 16.4 (≈ 50.9 µM)
CN(C(=O)CSc1nc(-c2cccs2)nc2ccccc12)C1CCS(=O)(=O)C1 (centres undefined) | 2.5 (≈ 5.77 µM)
COc1ccc(-c2noc(CNC(=O)c3ccoc3C)n2)cc1 | 37.8 (≈ 121 µM)
CNS(=O)(=O)c1ccc(NS(=O)(=O)c2ccccc2F)cc1 | 51 (≈ 148 µM)
Cn1ccnc1Sc1ccccc1[N+](=O)[O-] | 24.1 (≈ 102 µM)
O=c1oc2c(-c3ccc([N+](=O)[O-])cc3)cc(O)cc2s1 | < 0.6
COc1ccc(NC(=O)NC2CCCc3ccccc32)cc1OC (centres undefined) | 1.1 (≈ 3.37 µM)
CCCCCc1c(C)[nH]c2nc3ccccc3n2c1=O | 0.3 (≈ 1.11 µM)
CN(c1ccccc1)c1nc(N)c([N+](=O)[O-])c(Nc2ccccc2)n1 | < 0.1
Cc1cc(C)c(OCCCON2C(=O)CCC2=O)c(Br)c1 | > 53.4
O=C(COC(=O)Cc1c(Cl)cccc1Cl)NCc1ccco1 | > 51.3
COC(=O)c1ccc(/C=C/C(=O)OCC(=O)c2ccc[nH]2)cc1 | 6.8 (≈ 21.7 µM)
O=S(=O)(NCc1cn2ccccc2n1)c1ccccc1F | > 45.8
O=C(O)C(NS(=O)(=O)c1cccc2nsnc12)c1ccccc1 (centres undefined) | 48.4 (≈ 139 µM)
CC(C)(C)c1ccc(NC(=O)Nc2ccc3ccccc3n2)cc1 | < 0.2
O=S(=O)(Cc1ncc(C(F)(F)F)cc1Cl)c1ccccc1 | > 50.4
Cc1c(C(=O)O)nn(-c2cccc(C(F)(F)F)c2)c(=O)c1C#N | > 48.5
N#Cc1ccccc1COC(=O)c1cc(=O)c2ccccc2o1 | 16.7 (≈ 54.7 µM)

Structure (SMILES) | solubility kinetic [µg/mL]
Cc1nc2ccccc2c(=O)n1-c1ccncc1 | 29.1 (≈ 123 µM)
CCCCn1c2ccccc2c2cc(CC(N)=O)ccc21 | 3.8 (≈ 13.6 µM)
O=C(O)C1C2C=CC(C2)C1C(=O)NCc1ccccc1F (centres undefined) | > 43.4
CC1CC(C)CN(C(=O)COC(=O)c2cc3ccccc3oc2=O)C1 (centres undefined) | > 51.5
CS(=O)(=O)c1ccc(NCCN2CCOCC2)c([N+](=O)[O-])c1 | 44.4 (≈ 135 µM)
Cc1ccc(C(=O)N/C(=C\c2cn(C)c3ccccc23)C(=O)OCCN(C)C)cc1 | 58.9 (≈ 145 µM)
COc1ccc(C)cc1COC(=O)c1[nH]c(C)c(C(C)=O)c1C | > 47.3
CSc1ccccc1NC(=O)COC(=O)c1ccc(O)cc1 | 12.2 (≈ 38.4 µM)
O=c1[nH]c(O)c(C=NCCc2ccccc2)c(=O)[nH]1 | 3.6 (≈ 13.9 µM)
Cc1ccc(N2C(=O)CCC2(C#N)c2ccccc2)cc1 (centres undefined) | > 41.5
Cc1ccccc1NC(=O)COC(=O)C1C2CC3OC(=O)C1C3C2 (centres undefined) | > 49.4
Cc1ccc(Nc2ccc([N+](=O)[O-])ccc2=O)cc1 | < 0.3
COc1ccccc1NC(=O)c1c(O)c2ccccc2[nH]c1=O | 1.2 (≈ 3.87 µM)
CCCNC(=O)CSc1nc2ccc(OCC)cc2s1 | 7.2 (≈ 23.2 µM)
O=C1c2ccccc2NC(c2ccc(F)cc2)N1Cc1ccccc1 (centres undefined) | 1.4 (≈ 4.21 µM)
CC(C(=O)OCC(=O)NC1CCCC1)N1C(=O)c2ccccc2C1=O (centres undefined) | 50 (≈ 145 µM)
Cc1cnc(C(=O)OCC(=O)Nc2ccc(Cl)cn2)cn1 | > 46
CN(C)CCCNC(=S)Nc1ccc(Br)cc1 | > 47.4
COCc1c(C(=O)N2CCN(c3ccccc3C)CC2)oc2ccccc12 | 9.2 (≈ 25.2 µM)
